What all share (type): biochemical
One assay deals with T1, PI3Kα (Homo sapiens, UniProt P42336).
T1 construct: purchased Millipore Ltd (Billerica, Mass.)
Briefly: In vitro determination of the PI3K enzyme inhibitory activity in the cell free assay (ADP-Glo Kinase Assay), PI3Kα. The following applies: ATP 50 μM, read-out: PI3K alpha inhibition. The method, boiled down:
(§1)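 Human recombinant PI3K isoforms with PI/PS lipid substrates (50 μM in 2× buffer, Tris pH 7.5, DTT) were run 60 min at room temperature. Final ATP was 50 μM for α, 100 μM for β, 30 μM for γ and 80 μM for δ. ADP formation was read by ADP-Glo luminescence, and IC50 came from a four-parameter logistic fit.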
For orientation: In ADP-Glo the light output rises with the ADP produced.

Another assay addresses T2, PI3Kβ (Homo sapiens, UniProt P42338).
T2 construct: purchased Millipore Ltd (Billerica, Mass.)
Description: In vitro determination of the PI3K enzyme inhibitory activity in the cell free assay (ADP-Glo Kinase Assay), PI3Kβ. The following applies: ATP 100 μM, read-out: PI3K beta inhibition. In a few lines: as §1

The target of a further assay is T3, PI3Kγ (Homo sapiens, UniProt P48736).
T3 construct: purchased Millipore Ltd (Billerica, Mass.)
T3 sequence (P48736 whole entry): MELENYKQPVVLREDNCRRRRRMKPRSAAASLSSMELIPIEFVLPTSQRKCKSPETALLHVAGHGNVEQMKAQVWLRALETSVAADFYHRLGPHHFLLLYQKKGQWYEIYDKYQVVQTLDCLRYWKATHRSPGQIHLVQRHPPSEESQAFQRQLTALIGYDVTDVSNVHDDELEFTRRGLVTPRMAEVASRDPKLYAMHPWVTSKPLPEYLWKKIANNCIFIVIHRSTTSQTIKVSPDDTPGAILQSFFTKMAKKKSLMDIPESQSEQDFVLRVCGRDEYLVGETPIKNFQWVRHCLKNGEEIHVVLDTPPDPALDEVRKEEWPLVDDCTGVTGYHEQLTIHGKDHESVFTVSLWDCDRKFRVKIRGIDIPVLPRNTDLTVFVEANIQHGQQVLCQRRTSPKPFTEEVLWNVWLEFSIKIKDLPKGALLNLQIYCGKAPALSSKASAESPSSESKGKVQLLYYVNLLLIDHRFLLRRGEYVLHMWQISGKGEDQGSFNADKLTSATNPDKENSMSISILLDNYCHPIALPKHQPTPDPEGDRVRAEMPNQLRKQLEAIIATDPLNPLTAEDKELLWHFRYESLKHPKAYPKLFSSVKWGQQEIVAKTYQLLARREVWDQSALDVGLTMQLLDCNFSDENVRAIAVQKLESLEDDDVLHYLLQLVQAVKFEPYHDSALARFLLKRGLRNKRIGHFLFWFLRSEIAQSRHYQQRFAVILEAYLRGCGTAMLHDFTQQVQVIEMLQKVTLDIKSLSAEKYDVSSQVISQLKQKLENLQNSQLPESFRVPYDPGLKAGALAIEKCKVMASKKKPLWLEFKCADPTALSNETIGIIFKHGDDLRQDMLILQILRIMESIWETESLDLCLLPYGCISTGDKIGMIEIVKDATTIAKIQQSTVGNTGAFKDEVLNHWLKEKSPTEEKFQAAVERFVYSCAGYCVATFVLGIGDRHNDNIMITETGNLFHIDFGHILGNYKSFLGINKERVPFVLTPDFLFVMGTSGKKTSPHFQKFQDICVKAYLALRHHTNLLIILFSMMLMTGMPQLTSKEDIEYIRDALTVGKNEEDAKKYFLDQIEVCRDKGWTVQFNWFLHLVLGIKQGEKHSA
Description: In vitro determination of the PI3K enzyme inhibitory activity in the cell free assay (ADP-Glo Kinase Assay), PI3Kγ. The following applies: ATP 30 μM, read-out: PI3K gamma inhibition. In a few lines: as §1

For another assay, the target named is T4, PI3Kδ (Homo sapiens, UniProt O00329).
T4 construct: purchased Millipore Ltd (Billerica, Mass.)
T4 sequence (O00329 whole entry): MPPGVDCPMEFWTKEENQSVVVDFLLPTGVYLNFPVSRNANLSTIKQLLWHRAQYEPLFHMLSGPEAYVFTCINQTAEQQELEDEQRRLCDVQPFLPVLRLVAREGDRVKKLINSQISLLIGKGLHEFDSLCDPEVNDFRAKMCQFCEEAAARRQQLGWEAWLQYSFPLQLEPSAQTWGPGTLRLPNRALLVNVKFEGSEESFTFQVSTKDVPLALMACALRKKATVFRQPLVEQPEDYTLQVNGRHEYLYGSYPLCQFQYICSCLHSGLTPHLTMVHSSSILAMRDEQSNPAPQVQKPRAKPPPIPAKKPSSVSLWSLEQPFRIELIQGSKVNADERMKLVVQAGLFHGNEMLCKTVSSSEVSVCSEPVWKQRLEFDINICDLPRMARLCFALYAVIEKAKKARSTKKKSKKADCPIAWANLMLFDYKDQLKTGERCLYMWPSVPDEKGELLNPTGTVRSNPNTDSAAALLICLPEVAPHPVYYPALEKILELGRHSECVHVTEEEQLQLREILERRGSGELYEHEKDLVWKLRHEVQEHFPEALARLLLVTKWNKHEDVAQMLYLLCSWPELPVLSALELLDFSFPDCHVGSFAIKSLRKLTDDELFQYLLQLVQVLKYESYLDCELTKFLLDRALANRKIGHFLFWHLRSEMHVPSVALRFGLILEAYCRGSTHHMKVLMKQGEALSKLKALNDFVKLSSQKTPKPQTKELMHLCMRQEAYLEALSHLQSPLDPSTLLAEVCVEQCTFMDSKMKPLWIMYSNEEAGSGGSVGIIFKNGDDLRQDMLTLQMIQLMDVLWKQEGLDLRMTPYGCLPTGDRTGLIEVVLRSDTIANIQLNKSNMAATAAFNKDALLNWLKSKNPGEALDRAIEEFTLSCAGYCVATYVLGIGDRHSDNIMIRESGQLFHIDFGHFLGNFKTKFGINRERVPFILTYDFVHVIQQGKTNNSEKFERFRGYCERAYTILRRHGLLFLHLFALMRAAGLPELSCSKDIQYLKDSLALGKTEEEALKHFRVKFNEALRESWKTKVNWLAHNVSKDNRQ
T4 sequence (P27986 whole entry partner): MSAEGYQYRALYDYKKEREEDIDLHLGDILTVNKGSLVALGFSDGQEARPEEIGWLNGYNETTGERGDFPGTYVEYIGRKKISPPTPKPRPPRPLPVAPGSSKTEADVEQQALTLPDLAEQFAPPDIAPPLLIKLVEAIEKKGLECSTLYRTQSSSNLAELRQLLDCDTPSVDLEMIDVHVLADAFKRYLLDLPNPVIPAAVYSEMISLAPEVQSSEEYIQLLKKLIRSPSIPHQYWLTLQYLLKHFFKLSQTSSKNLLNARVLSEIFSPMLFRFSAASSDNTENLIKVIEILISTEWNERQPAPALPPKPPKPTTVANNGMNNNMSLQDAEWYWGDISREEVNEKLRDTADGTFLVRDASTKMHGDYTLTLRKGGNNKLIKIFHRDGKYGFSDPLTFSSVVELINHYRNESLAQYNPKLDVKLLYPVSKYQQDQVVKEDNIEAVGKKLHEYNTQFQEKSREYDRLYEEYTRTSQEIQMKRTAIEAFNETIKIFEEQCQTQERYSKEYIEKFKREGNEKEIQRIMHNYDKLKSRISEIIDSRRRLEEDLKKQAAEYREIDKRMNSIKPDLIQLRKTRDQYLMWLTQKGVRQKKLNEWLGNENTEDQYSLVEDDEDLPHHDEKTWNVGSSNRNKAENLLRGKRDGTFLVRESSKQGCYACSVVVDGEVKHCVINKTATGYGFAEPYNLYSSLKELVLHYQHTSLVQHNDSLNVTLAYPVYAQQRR
Briefly: In vitro determination of the PI3K enzyme inhibitory activity in the cell free assay (ADP-Glo Kinase Assay), PI3Kδ. The following applies: ATP 80 μM, read-out: PI3K delta inhibition. In a few lines:
as §1

Each structure is given as a SMILES string.

T2 sequence (P42338 whole entry): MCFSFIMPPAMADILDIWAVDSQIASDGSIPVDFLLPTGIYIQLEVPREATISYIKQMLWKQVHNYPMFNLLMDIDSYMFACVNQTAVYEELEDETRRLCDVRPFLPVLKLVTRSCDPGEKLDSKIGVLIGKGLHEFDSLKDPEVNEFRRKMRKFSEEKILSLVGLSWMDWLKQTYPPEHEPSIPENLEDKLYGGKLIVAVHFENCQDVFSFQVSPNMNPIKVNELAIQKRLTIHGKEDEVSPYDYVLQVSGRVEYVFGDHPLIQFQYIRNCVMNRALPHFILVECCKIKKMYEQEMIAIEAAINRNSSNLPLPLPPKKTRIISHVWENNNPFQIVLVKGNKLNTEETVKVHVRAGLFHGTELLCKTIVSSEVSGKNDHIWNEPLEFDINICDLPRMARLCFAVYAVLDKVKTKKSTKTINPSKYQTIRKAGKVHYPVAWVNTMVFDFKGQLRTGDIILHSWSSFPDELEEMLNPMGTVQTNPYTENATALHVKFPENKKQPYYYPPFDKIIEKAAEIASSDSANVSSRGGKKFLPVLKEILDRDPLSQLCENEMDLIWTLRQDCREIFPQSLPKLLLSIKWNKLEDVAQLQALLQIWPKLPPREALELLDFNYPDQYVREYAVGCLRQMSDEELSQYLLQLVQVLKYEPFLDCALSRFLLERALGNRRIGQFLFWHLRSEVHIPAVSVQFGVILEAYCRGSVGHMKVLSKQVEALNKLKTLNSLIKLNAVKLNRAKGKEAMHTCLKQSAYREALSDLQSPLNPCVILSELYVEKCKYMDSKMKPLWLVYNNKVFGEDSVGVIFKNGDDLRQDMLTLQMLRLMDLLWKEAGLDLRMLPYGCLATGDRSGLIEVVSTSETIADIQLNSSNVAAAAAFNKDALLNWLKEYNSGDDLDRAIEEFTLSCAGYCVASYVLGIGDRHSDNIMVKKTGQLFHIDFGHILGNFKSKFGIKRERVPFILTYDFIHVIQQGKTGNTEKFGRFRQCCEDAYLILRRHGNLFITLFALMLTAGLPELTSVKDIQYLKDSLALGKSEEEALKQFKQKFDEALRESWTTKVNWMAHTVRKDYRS
T2 sequence (P27986 whole entry partner): as the sequence (P27986 whole entry partner) above
T1 sequence (P42336 whole entry): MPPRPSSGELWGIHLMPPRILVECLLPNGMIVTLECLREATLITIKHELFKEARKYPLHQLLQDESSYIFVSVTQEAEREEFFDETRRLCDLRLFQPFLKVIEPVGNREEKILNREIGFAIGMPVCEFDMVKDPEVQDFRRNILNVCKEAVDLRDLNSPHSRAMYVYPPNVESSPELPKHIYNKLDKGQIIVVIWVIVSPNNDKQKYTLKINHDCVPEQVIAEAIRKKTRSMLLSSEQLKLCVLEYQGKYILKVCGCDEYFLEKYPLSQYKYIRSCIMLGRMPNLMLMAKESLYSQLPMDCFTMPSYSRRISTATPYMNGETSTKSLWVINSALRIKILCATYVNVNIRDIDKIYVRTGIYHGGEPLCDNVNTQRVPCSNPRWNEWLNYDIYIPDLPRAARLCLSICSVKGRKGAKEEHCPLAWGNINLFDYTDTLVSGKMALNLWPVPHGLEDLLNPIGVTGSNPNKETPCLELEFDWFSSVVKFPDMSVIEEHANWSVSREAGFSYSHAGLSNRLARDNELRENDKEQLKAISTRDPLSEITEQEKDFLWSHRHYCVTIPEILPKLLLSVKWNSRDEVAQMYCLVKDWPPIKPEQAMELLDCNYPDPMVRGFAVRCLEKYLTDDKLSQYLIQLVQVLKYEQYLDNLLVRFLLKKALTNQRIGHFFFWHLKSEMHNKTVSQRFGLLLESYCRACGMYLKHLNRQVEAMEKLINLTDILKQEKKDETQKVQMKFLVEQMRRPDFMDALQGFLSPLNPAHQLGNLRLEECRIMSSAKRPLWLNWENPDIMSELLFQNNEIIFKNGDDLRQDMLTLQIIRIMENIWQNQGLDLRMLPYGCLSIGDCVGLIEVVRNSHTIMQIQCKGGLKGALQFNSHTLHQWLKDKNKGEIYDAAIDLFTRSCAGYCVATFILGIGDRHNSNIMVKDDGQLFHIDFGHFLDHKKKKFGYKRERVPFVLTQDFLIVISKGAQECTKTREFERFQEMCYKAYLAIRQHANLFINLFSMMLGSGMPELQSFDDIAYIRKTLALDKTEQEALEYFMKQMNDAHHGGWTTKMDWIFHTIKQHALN
T1 sequence (P27986 whole entry partner): as the sequence (P27986 whole entry partner) above

As for `N#Cc1c(N)ncnc1NCc1cn2ccccc2c1-c1ccccc1` [Example 27, 4-amino-6-{[(1-phenylindolizin-2-yl)methyl]amino}pyrimidine-5-carbonitrile], the IC50 at PI3Kα, on PI3Kβ, at PI3Kγ and at PI3Kδ was over 1 µM throughout.

With `CC(Nc1ncnc(N)c1C#N)c1cc2ccccn2c1-c1ccccc1` (stereo not shown) [Example 32, 4-amino-6-{[1-(3-phenylindolizin-2-yl)ethyl]amino}pyrimidine-5-carbonitrile], the IC50 at PI3Kα is over 1 µM; on PI3Kβ, over 1 µM; at PI3Kγ, over 1 µM; at PI3Kδ, 0.01 to 1 µM.

In the case of `CC(c1cc2ccccn2c1-c1ccccn1)n1nc(-c2cccc(O)c2)c2c(N)ncnc21` (stereo not shown) [Example 61, 3-(4-amino-1-{1-[3-(pyridin-2-yl)indolizin-2-yl]ethyl}-1H-pyrazolo[3,4-d]pyrimidin-3-yl)phenol], the IC50 on PI3Kα was over 1 µM; at PI3Kβ, 0.01 to 1 µM; on PI3Kγ it was 0.01 to 1 µM; on PI3Kδ, 0.01 to 1 µM.

For `Cc1cc(-c2c(C(C)n3nc(-c4cc(O)cc(F)c4)c4c(N)ncnc43)cc3ccccn23)ccn1` (stereo not shown) [Example 106, 3-(4-amino-1-{1-[3-(2-methylpyridin-4-yl)indolizin-2-yl]ethyl}-1H-pyrazolo[3,4-d]pyrimidin-3-yl)-5-fluorophenol], the IC50 at PI3Kα was over 1 µM; at PI3Kβ, 0.01 to 1 µM; on PI3Kγ it was 0.01 to 1 µM; on PI3Kδ it was under 0.01 µM.

For the molecule `CC(c1cc2ccccn2c1-c1ccccn1)n1nc(-c2cc(F)cc(-c3nnn[nH]3)c2)c2c(N)ncnc21` (stereo not shown) [Example 78, 3-[3-fluoro-5-(1H-1,2,3,4-tetrazol-5-yl)phenyl]-1-{1-[3-(pyridin-2-yl)indolizin-2-yl]ethyl}-1H-pyrazolo[3,4-d]pyrimidin-4-amine:ammonia 2:1], the IC50 at PI3Kα, at PI3Kβ, at PI3Kγ and on PI3Kδ was over 1 µM throughout.

Turning to `Fc1cccc(-c2c(CNc3ncnc4[nH]cnc34)cn3ccccc23)c1` [Example 18, N-{[1-(3-fluorophenyl)indolizin-2-yl]methyl}-9H-purin-6-amine], the IC50 on PI3Kα is over 1 µM; on PI3Kβ, over 1 µM; on PI3Kγ, over 1 µM; at PI3Kδ, 0.01 to 1 µM.

Consider `CC(c1cc2ccccn2c1-c1cccc(CN2CCOCC2)n1)n1nc(-c2cc(O)cc(F)c2)c2c(N)ncnc21` (stereo not shown) [Example 110, 3-[4-amino-1-(1-{3-[6-(morpholin-4-ylmethyl)pyridin-2-yl]indolizin-2-yl}ethyl)-1H-pyrazolo[3,4-d]-pyrimidin-3-yl]-5-fluorophenol], for which the IC50 at PI3Kα was over 1 µM; at PI3Kβ it was 0.01 to 1 µM; at PI3Kγ, over 1 µM; on PI3Kδ it was under 0.01 µM.

In the case of `CC(c1cc2ccccn2c1-c1ccn(CCN2CCOCC2)n1)n1nc(-c2cc(O)cc(F)c2)c2c(N)ncnc21` (stereo not shown) [Example 150, 3-{4-amino-1-[1-(3-{1-[2-(morpholin-4-yl)ethyl]-1H-pyrazol-3-yl}indolizin-2-yl)ethyl]-1H-pyrazolo-[3,4-d]pyrimidin-3-yl}-5-fluorophenol], the IC50 is over 1 µM on PI3Kα, 0.01 to 1 µM on PI3Kβ, 0.01 to 1 µM on PI3Kγ and under 0.01 µM at PI3Kδ.

Regarding `CC(c1cc2ccccn2c1-c1ccc(CN(CCO)CCO)cn1)n1nc(-c2cc(O)cc(F)c2)c2c(N)ncnc21` (stereo not shown) [Example 117, 3-(4-amino-1-{1-[3-(5-{[bis(2-hydroxyethyl)amino]methyl}pyridin-2-yl)indolizin-2-yl]ethyl}-1H-pyrazolo[3,4-d]pyrimidin-3-yl)-5-fluorophenol], the IC50 at PI3Kα was over 1 µM; on PI3Kβ, 0.01 to 1 µM; at PI3Kγ, over 1 µM; at PI3Kδ, under 0.01 µM.

`CC(Nc1ncnc(N)c1C#N)c1cc2ccccn2c1-c1cnccn1` (stereo not shown) [Example 35, 4-amino-6-({1-[3-(pyrazin-2-yl)indolizin-2-yl]ethyl}amino)pyrimidine-5-carbonitrile]: the IC50 was over 1 µM on PI3Kα, 0.01 to 1 µM on PI3Kβ, over 1 µM on PI3Kγ and 0.01 to 1 µM at PI3Kδ.

For `CC(Nc1ncnc(N)c1CO)c1cc2ccccn2c1-c1ccccn1` (stereo not shown) [Example 56, [4-amino-6-({1-[3-(pyridin-2-yl)indolizin-2-yl]ethyl}amino)pyrimidin-5-yl]methanol], the IC50 at PI3Kα, at PI3Kβ, at PI3Kγ and on PI3Kδ was over 1 µM in each case.

`CC(c1c(C(F)(F)F)c2ccccn2c1-c1ccccn1)n1nc(-c2cc(O)cc(F)c2)c2c(N)ncnc21` (stereo not shown) [Example 124, 3-(4-amino-1-{1-[3-(pyridin-2-yl)-1-(trifluoromethyl)indolizin-2-yl]ethyl}-1H-pyrazolo[3,4-d]pyrimidin-3-yl)-5-fluorophenol]: the IC50 was over 1 µM at PI3Kα, 0.01 to 1 µM at PI3Kβ, over 1 µM on PI3Kγ and under 0.01 µM at PI3Kδ.

In the case of `CC(c1cc2ccccn2c1-c1csc(CN2CCOCC2)n1)n1nc(-c2cc(O)cc(F)c2)c2c(N)ncnc21` (stereo not shown) [Example 130, 3-[4-amino-1-(1-{3-[2-(morpholin-4-ylmethyl)-1,3-thiazol-4-yl]indolizin-2-yl}ethyl)-1H-pyrazolo-[3,4-d]pyrimidin-3-yl]-5-fluorophenol], the IC50 on PI3Kα was over 1 µM; on PI3Kβ, 0.01 to 1 µM; on PI3Kγ, 0.01 to 1 µM; on PI3Kδ, under 0.01 µM.

`C[C@@H](c1cc2ccccn2c1-c1ccccn1)n1nc(-c2cc(O)cc(F)c2)c2c(N)ncnc21` (single isomer, unassigned) [Example 81, 3-(4-amino-1-{1-[3-(pyridin-2-yl)indolizin-2-yl]ethyl}-1H-pyrazolo[3,4-d]pyrimidin-3-yl)-5-fluorophenol]: the IC50 at PI3Kα is over 1 µM; on PI3Kβ, over 1 µM; on PI3Kγ it was over 1 µM; on PI3Kδ, 0.01 to 1 µM.

Consider `Nc1ncnc2c1ncn2Cc1cc2ccccn2c1-c1ccccc1F` [Example 6, 9-{[3-(2-fluorophenyl)indolizin-2-yl]methyl}-9H-purin-6-amine], for which the IC50 on PI3Kα, on PI3Kβ, at PI3Kγ and on PI3Kδ was over 1 µM throughout.

For the molecule `CC(Nc1ncnc(N)c1C#N)c1cc2ccccn2c1C1=CCOCC1` (stereo not shown) [Example 42, 4-amino-6-({1-[3-(3,6-dihydro-2H-pyran-4-yl)indolizin-2-yl]ethyl}amino)pyrimidine-5-carbonitrile], the IC50 on PI3Kα is over 1 µM; at PI3Kβ, 0.01 to 1 µM; on PI3Kγ, over 1 µM; at PI3Kδ, 0.01 to 1 µM.

As for `CC(c1cc2ccccn2c1-c1ccccn1)n1nc(-c2cc(F)cc(S(N)(=O)=O)c2)c2c(N)ncnc21` (stereo not shown) [Example 75, 3-(4-amino-1-{1-[3-(pyridin-2-yl)indolizin-2-yl]ethyl}-1H-pyrazolo[3,4-d]pyrimidin-3-yl)-5-fluorobenzene-1-sulfonamide], the IC50 at PI3Kα, at PI3Kβ, at PI3Kγ and at PI3Kδ was over 1 µM in each case.

Take `CC(Nc1ncnc(N)c1C(N)=O)c1cc2ccccn2c1-c1ccccn1` (stereo not shown) [Example 52, 4-amino-6-({1-[3-(pyridin-2-yl)indolizin-2-yl]ethyl}amino)pyrimidine-5-carboxamide]: the IC50 was over 1 µM on PI3Kα, over 1 µM at PI3Kβ, over 1 µM on PI3Kγ and 0.01 to 1 µM on PI3Kδ.

Consider `CC(c1cc2ccccn2c1-c1cc(CN2CCOCC2)ccn1)n1nc(-c2cc(O)cc(F)c2)c2c(N)ncnc21` (stereo not shown) [Example 111, 3-[4-amino-1-(1-{3-[4-(morpholin-4-ylmethyl)pyridin-2-yl]indolizin-2-yl}ethyl)-1H-pyrazolo[3,4-d]-pyrimidin-3-yl]-5-fluorophenol], for which the IC50 at PI3Kα was over 1 µM; on PI3Kβ, 0.01 to 1 µM; at PI3Kγ, 0.01 to 1 µM; on PI3Kδ, under 0.01 µM.

Consider `CC(c1cc2ccccn2c1-c1ccccn1)n1nc(-c2cccnc2)c2c(N)ncnc21` (stereo not shown) [Example 68, 1-{1-[3-(pyridin-2-yl)indolizin-2-yl]ethyl}-3-(pyridin-3-yl)-1H-pyrazolo[3,4-d]pyrimidin-4-amine], for which the IC50 at PI3Kα is over 1 µM; on PI3Kβ, over 1 µM; on PI3Kγ, over 1 µM; at PI3Kδ, 0.01 to 1 µM.

For the molecule `CC(c1cc2ccccn2c1-c1ccc(=O)n(CCN2CCN(C)CC2)n1)n1nc(-c2cc(O)cc(F)c2)c2c(N)ncnc21` (stereo not shown) [Example 135, 6-(2-{1-[4-amino-3-(3-fluoro-5-hydroxyphenyl)-1H-pyrazolo[3,4-d]pyrimidin-1-yl]-ethyl}indolizin-3-yl)-2-[2-(4-methylpiperazin-1-yl)ethyl]-2,3-dihydropyridazin-3-one], the IC50 at PI3Kα is over 1 µM; at PI3Kβ, 0.01 to 1 µM; at PI3Kγ, over 1 µM; at PI3Kδ it was 0.01 to 1 µM.

On to `CC(c1cc2ccccn2c1-c1cccc(CN(C)C)c1)n1nc(-c2cc(O)cc(F)c2)c2c(N)ncnc21` (racemic) [Example 93, 3-{4-amino-1-[1-(3-{3-[(dimethylamino)methyl]phenyl}indolizin-2-yl)ethyl]-1H-pyrazolo[3,4-d]pyrimidin-3-yl}-5-fluorophenol], for which the IC50 on PI3Kα, on PI3Kβ, at PI3Kγ and at PI3Kδ was 0.01 to 1 µM in each case.

The values above are taken from patent publication US9527869B2, “Indolizine derivatives as phoshoinositide 3-kinases inhibitors” (CHIESI FARMACEUTICI S.P.A., priority 2014, dated 2016).
